Test results reported in patent US20020115104A1, “MMSC2 - an MMAC1 interacting protein” (priority 1998, published 2002).
*: point of attachment. Biotin = O=C1N[C@H]2[C@H](CS[C@H]2CCCCC(=O)*)N1

Legend:
MMSC2 PDZ domain 7 (P9) = molecular target: T1, MMSC2 PDZ domain 7 (P9) (Homo sapiens, UniProt O75970); assay: PDZ binding assay (ELISA), PDZ domain 7; details: for A405: immobilized GST-PDZ domain 7 (P9), biotinylated peptide pre-bound to streptavidin-alkaline phosphatase, colorimetric phosphatase assay
T1 construct: 1150-1241; made in house; host or cells: E. coli
T1 sequence (O75970 1150-1241 isoform O75970-3): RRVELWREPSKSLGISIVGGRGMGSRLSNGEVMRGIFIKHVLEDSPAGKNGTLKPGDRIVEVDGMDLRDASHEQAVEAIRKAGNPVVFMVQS
Source text: (§1) cDNAs encoding each of the MMSC2 PDZ domains (amino acid residues identified in Table 1), and any desired control proteins, were generated by PCR and subcloned as glutathione S-transferase (GST) fusions in pGEX vectors (Pharmacia). After sequencing to confirm expression construct integrity, the resulting clones were expressed in E. coli and the desired fusion proteins isolated with glutathione-agarose and recovered with glutathione elution. These fusion proteins or control proteins were then adsorbed to different wells of a 96-well ELISA plate and remaining sites blocked with BSA. Synthetic commercially synthesized peptides encoding the desired PDZ-binding domain (i.e., the 16 C-terminal amino acids of MMAC1, or the C-terminal peptide sequences of interacting proteins identified by the approach of Example 2, or the C-terminal peptide sequences identified by the approach of Example 3), or a control peptide, and biotinylated at the amino-terminus, were pre-bound to streptavidin-alkaline phosphatase in a 4:1 molar ratio. The biotinylated peptide streptavidin-alkaline phosphatase complexes were then blocked with free biotin. These pre-bound peptide streptavidin-alkaline phosphatase complexes were then incubated with the immobilized PDZ domains in wash buffer containing PBS, BSA and triton-X100. Unbound material was removed with repeated washes. Bound peptide/streptavidin-alkaline phosphatase complex was then quantitated by a colorimetric phosphatase assay read on a 96-well plate reader. The following peptides were used in the initial study:
(§2) The relative affinity of each of the 13 PDZ domains encoded by MMSC2 for an MMAC1 C-terminal PDZ peptide as measured by an ELISA assay is set forth in Table 2.

MMSC2 PDZ domain 4 (P10) = molecular target: T2, MMSC2 PDZ domain 4 (P10) (Homo sapiens, UniProt O75970); assay: PDZ binding assay (ELISA), PDZ domain 4; details: immobilized GST-PDZ domain 4 (P10); biotinylated peptide pre-bound to streptavidin-alkaline phosphatase; colorimetric phosphatase assay
T2 construct: 555-632; made in house; host or cells: E. coli
T2 sequence (O75970 555-632 isoform O75970-3): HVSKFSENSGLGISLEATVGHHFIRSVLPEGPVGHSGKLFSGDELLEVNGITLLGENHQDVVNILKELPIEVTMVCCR
Source text: as §1, with “The biotinylated peptide streptavidin-alkaline phosphatase complexes were then blocked with free biotin. These pre-bound peptide streptavidin-alkaline phosphatase complexes were then incubated with the immobilized PDZ domains in wash buffer containing PBS, BSA and triton-X100. Unbound material was removed with repeated washes.” left out, “The following peptides were used in the initial study:” left out
as §2

MMSC2 PDZ domain 13 (P4) = molecular target: T3, MMSC2 PDZ domain 13 (P4) (Homo sapiens, UniProt O75970); assay: PDZ binding assay (ELISA), PDZ domain 13; details: for A405: immobilized GST-PDZ domain 13 (P4), biotinylated peptide pre-bound to streptavidin-alkaline phosphatase, colorimetric phosphatase assay
T3 construct: 1953-2037; made in house; host or cells: E. coli
T3 sequence (O75970 1953-2037 isoform O75970-3): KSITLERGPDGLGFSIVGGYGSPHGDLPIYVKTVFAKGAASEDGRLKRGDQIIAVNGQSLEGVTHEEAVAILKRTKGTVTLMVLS
Source text: as §1, §2

MMSC2 PDZ domain 9 (P7) = molecular target: T4, MMSC2 PDZ domain 9 (P7) (Homo sapiens, UniProt O75970); assay: PDZ binding assay (ELISA), PDZ domain 9; details: immobilized GST-PDZ domain 9 (P7); biotinylated peptide pre-bound to streptavidin-alkaline phosphatase; colorimetric phosphatase assay
T4 construct: 1439-1529; made in house; host or cells: E. coli
T4 sequence (O75970 1439-1529 isoform O75970-3): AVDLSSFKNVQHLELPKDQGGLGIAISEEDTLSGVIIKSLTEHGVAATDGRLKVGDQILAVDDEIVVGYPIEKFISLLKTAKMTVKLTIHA
Source text: as §1, with “The biotinylated peptide streptavidin-alkaline phosphatase complexes were then blocked with free biotin. These pre-bound peptide streptavidin-alkaline phosphatase complexes were then incubated with the immobilized PDZ domains in wash buffer containing PBS, BSA and triton-X100. Unbound material was removed with repeated washes.” left out, “The following peptides were used in the initial study:” left out
as §2

MMSC2 PDZ domain 2 (P14) = molecular target: T5, MMSC2 PDZ domain 2 (P14) (Homo sapiens, UniProt O75970); assay: PDZ binding assay (ELISA), PDZ domain 2; details: immobilized GST-PDZ domain 2 (P14); biotinylated peptide pre-bound to streptavidin-alkaline phosphatase; colorimetric phosphatase assay
T5 construct: 256-335; made in house; host or cells: E. coli
T5 sequence (O75970 256-335 isoform O75970-3): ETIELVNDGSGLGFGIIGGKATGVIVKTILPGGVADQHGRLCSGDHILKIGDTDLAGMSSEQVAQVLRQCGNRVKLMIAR
Source text: as §1, with “The biotinylated peptide streptavidin-alkaline phosphatase complexes were then blocked with free biotin. These pre-bound peptide streptavidin-alkaline phosphatase complexes were then incubated with the immobilized PDZ domains in wash buffer containing PBS, BSA and triton-X100. Unbound material was removed with repeated washes.” left out, “The following peptides were used in the initial study:” left out
as §2

MMSC2 PDZ domain 5 (P12) = molecular target: T6, MMSC2 PDZ domain 5 (P12) (Homo sapiens, UniProt O75970); assay: PDZ binding assay (ELISA), PDZ domain 5; details: immobilized GST-PDZ domain 5 (P12); biotinylated peptide pre-bound to streptavidin-alkaline phosphatase; colorimetric phosphatase assay
T6 construct: 699-785; made in house; host or cells: E. coli
T6 sequence (O75970 699-785 isoform O75970-3): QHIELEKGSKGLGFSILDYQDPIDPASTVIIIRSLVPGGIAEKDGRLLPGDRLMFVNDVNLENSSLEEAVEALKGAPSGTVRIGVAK
Source text: as §1, with “The biotinylated peptide streptavidin-alkaline phosphatase complexes were then blocked with free biotin. These pre-bound peptide streptavidin-alkaline phosphatase complexes were then incubated with the immobilized PDZ domains in wash buffer containing PBS, BSA and triton-X100. Unbound material was removed with repeated washes.” left out, “The following peptides were used in the initial study:” left out
as §2

MMSC2 PDZ domain 11 (P2) = molecular target: T7, MMSC2 PDZ domain 11 (P2) (Homo sapiens, UniProt O75970); assay: PDZ binding assay (ELISA), PDZ domain 11; details: immobilized GST-PDZ domain 11 (P2); biotinylated peptide pre-bound to streptavidin-alkaline phosphatase; colorimetric phosphatase assay
T7 construct: 1691-1772; made in house; host or cells: E. coli
T7 sequence (O75970 1691-1772 isoform O75970-3): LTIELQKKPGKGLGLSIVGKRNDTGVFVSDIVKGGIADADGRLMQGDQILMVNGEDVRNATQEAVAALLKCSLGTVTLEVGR
Source text: as §1, with “The biotinylated peptide streptavidin-alkaline phosphatase complexes were then blocked with free biotin. These pre-bound peptide streptavidin-alkaline phosphatase complexes were then incubated with the immobilized PDZ domains in wash buffer containing PBS, BSA and triton-X100. Unbound material was removed with repeated washes.” left out, “The following peptides were used in the initial study:” left out
as §2

MMSC2 PDZ domain 6 (P11) = molecular target: T8, MMSC2 PDZ domain 6 (P11) (Homo sapiens, UniProt O75970); assay: PDZ binding assay (ELISA), PDZ domain 6; details: immobilized GST-PDZ domain 6 (P11); biotinylated peptide pre-bound to streptavidin-alkaline phosphatase; colorimetric phosphatase assay
T8 construct: 1007-1090; made in house; host or cells: E. coli
T8 sequence (O75970 1007-1090 isoform O75970-3): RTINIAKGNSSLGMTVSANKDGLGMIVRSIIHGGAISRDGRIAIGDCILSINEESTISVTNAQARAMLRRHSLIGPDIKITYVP
Source text: as §1, with “The biotinylated peptide streptavidin-alkaline phosphatase complexes were then blocked with free biotin. These pre-bound peptide streptavidin-alkaline phosphatase complexes were then incubated with the immobilized PDZ domains in wash buffer containing PBS, BSA and triton-X100. Unbound material was removed with repeated washes.” left out, “The following peptides were used in the initial study:” left out
as §2

MMSC2 PDZ domain 8 (P8) = molecular target: T9, MMSC2 PDZ domain 8 (P8) (Homo sapiens, UniProt O75970); assay: PDZ binding assay (ELISA), PDZ domain 8; details: immobilized GST-PDZ domain 8 (P8); biotinylated peptide pre-bound to streptavidin-alkaline phosphatase; colorimetric phosphatase assay
T9 construct: 1316-1398; made in house; host or cells: E. coli
T9 sequence (O75970 1316-1398 isoform O75970-3): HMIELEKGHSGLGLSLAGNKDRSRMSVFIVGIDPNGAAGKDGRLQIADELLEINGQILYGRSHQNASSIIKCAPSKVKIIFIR
Source text: as §1, with “The biotinylated peptide streptavidin-alkaline phosphatase complexes were then blocked with free biotin. These pre-bound peptide streptavidin-alkaline phosphatase complexes were then incubated with the immobilized PDZ domains in wash buffer containing PBS, BSA and triton-X100. Unbound material was removed with repeated washes.” left out, “The following peptides were used in the initial study:” left out
as §2

MMSC2 PDZ domain 1 (P15) = molecular target: T10, MMSC2 PDZ domain 1 (P15) (Homo sapiens, UniProt O75970); assay: PDZ binding assay (ELISA), PDZ domain 1; details: immobilized GST-PDZ domain 1 (P15); biotinylated peptide pre-bound to streptavidin-alkaline phosphatase; colorimetric phosphatase assay
T10 construct: 136-222; made in house; host or cells: E. coli
T10 sequence (O75970 136-222 isoform O75970-3): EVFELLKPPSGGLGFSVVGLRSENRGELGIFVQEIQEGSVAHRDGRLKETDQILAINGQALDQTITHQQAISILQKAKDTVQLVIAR
Source text: as §1, with “The biotinylated peptide streptavidin-alkaline phosphatase complexes were then blocked with free biotin. These pre-bound peptide streptavidin-alkaline phosphatase complexes were then incubated with the immobilized PDZ domains in wash buffer containing PBS, BSA and triton-X100. Unbound material was removed with repeated washes.” left out, “The following peptides were used in the initial study:” left out
as §2

MMSC2 PDZ domain 10 (P1) = molecular target: T11, MMSC2 PDZ domain 10 (P1) (Homo sapiens, UniProt O75970); assay: PDZ binding assay (ELISA), PDZ domain 10; details: for A405: immobilized GST-PDZ domain 10 (P1), biotinylated peptide pre-bound to streptavidin-alkaline phosphatase, colorimetric phosphatase assay
T11 construct: 1595-1677; made in house; host or cells: E. coli
T11 sequence (O75970 1595-1677 isoform O75970-3): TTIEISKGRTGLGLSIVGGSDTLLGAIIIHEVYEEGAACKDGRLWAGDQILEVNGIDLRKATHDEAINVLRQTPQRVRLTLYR
Source text: as §1, §2

MMSC2 PDZ domain 3 (P13) = molecular target: T12, MMSC2 PDZ domain 3 (P13) (Homo sapiens, UniProt O75970); assay: PDZ binding assay (ELISA), PDZ domain 3; details: immobilized GST-PDZ domain 3 (P13); biotinylated peptide pre-bound to streptavidin-alkaline phosphatase; colorimetric phosphatase assay
T12 construct: 376-461; made in house; host or cells: E. coli
T12 sequence (O75970 376-461 isoform O75970-3): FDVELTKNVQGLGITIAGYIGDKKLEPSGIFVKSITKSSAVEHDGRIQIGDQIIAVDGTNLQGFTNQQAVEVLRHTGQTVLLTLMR
Source text: as §1, with “The biotinylated peptide streptavidin-alkaline phosphatase complexes were then blocked with free biotin. These pre-bound peptide streptavidin-alkaline phosphatase complexes were then incubated with the immobilized PDZ domains in wash buffer containing PBS, BSA and triton-X100. Unbound material was removed with repeated washes.” left out, “The following peptides were used in the initial study:” left out
as §2

MMSC2 PDZ domain 12 (P3) = molecular target: T13, MMSC2 PDZ domain 12 (P3) (Homo sapiens, UniProt O75970); assay: PDZ binding assay (ELISA), PDZ domain 12; details: immobilized GST-PDZ domain 12 (P3); biotinylated peptide pre-bound to streptavidin-alkaline phosphatase; colorimetric phosphatase assay
T13 construct: 1828-1913; made in house; host or cells: E. coli
T13 sequence (O75970 1828-1913 isoform O75970-3): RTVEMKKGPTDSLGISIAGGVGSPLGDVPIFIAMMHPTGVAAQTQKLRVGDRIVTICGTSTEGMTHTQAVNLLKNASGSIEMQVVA
Source text: as §1, with “The biotinylated peptide streptavidin-alkaline phosphatase complexes were then blocked with free biotin. These pre-bound peptide streptavidin-alkaline phosphatase complexes were then incubated with the immobilized PDZ domains in wash buffer containing PBS, BSA and triton-X100. Unbound material was removed with repeated washes.” left out, “The following peptides were used in the initial study:” left out
as §2

Substance	A405 (MMSC2 PDZ domain 7 (P9))	A405 (MMSC2 PDZ domain 4 (P10))	A405 (MMSC2 PDZ domain 13 (P4))	A405 (MMSC2 PDZ domain 9 (P7))	A405 (MMSC2 PDZ domain 2 (P14))	A405 (MMSC2 PDZ domain 5 (P12))	A405 (MMSC2 PDZ domain 11 (P2))	A405 (MMSC2 PDZ domain 6 (P11))	A405 (MMSC2 PDZ domain 8 (P8))	A405 (MMSC2 PDZ domain 1 (P15))	A405 (MMSC2 PDZ domain 10 (P1))	A405 (MMSC2 PDZ domain 3 (P13))	A405 (MMSC2 PDZ domain 12 (P3))	interaction of PDZ domain with MMAC1 (in words) (MMSC2 PDZ domain 7 (P9); PDZ domain number 7, 7 appearing stronger)	interaction of PDZ domain with MMAC1 (in words) (MMSC2 PDZ domain 13 (P4); PDZ domain number 13)	interaction of PDZ domain with MMAC1 (in words) (MMSC2 PDZ domain 10 (P1); PDZ domain number 10)
Biotin-SGSGILAPPVPPRNTR-OH [SH3, reference compound]	0.006	0.010	0.006	0.009	0.006	0.005	0.009	0.017	0.008	0.007	0.002	0.008	0.011	–	–	–
Biotin-ENEPFDEDQHTQITKV-OH [MMAC1]	0.667	0.024	0.456	0.017	0.001	0.000	0.012	0.016	0.006	0.011	0.174	0.006	0.003	interact	interact	interact
